# Experimental data published in US20070043064A1, “7-Substituted 3-nitro-pyrazo[1,5-a] pyrimidines” (FERRER INTERNACIONAL S.A., priority 2003, published 2007).
# Like-named read-outs stand apart in the source and are kept apart here.
# Experiments:
# male CD1 mice = experiment: Predictive sedation-hypnosis test in mice (motor activity, crossings); format: in vivo; settings: single equimolecular intraperitoneal dose, crossings over 30 min after dosing (first 5 min discarded) versus control animals
# Protocol: In Vivo Determination of Predictive Sedative-Hypnotic Action.
# The in vivo effects of these compounds were assessed by a predictive sedation-hypnosis test in mice (D. J. Sanger et al., Eur. J. Pharmacol., 313, 35-42, 1996; and G. Griebel et al., Psychopharmacology, 146, 205-213, 1999).
# Groups of 5-8 male CD1 mice, weighing 22-26 g at the time of test, were used. The test compounds were administered in single equimolecular intraperitoneal doses, suspended in 0.25% agar with one drop of Tween in a volume of 10 ml/kg. Control animals received the vehicle alone. Using an Actisystem DAS16 (Panlab, S. L., Spain) the crossings (number of counts) were recorded for each mouse at 5-min intervals during a period of 30 minutes after dosing. The inhibition percentage of crossings of treated animals versus control animals (the first 5 min were discarded) was calculated.
# α1-GABAA receptor = target: T1, α1-GABAA receptor (Rattus norvegicus, UniProt P62813); experiment: Ligand-binding assay, radiolabeled flumazenil competition, cerebellum membranes
# T1 construct: the cerebellum (tissue that mostly contains α1-GABAA receptor); from tissue; host or cells: rat cerebellum membranes
# Protocol: (§1) Ligand-Binding Assays. Determination of the Affinity of Test Compounds for α1- and α2-GABAA Receptors.
# (§2) Male Sprague-Dawley rats weighing 200-250 g at the time of experiment were used. After decapitation of the animal, the cerebellum (tissue that mostly contains α1-GABAA receptor) and spinal cord (tissue that mostly contains α2-GABAA receptor) were removed. The membranes were prepared according to the method by J. Lameh et al. (Prog. Neuro-Psychopharmacol. Biol. Psychiatry, 24, 979-991, 2000). Once the tissues weighed, they were suspended in 50 mM Tris HCl buffer, pH 7.7, (1:40 v/v), homogenized and then centrifuged at 20000 g for 10 min at 7° C. The resulting pellet was resuspended under the same conditions and centrifuged again. The final pellet obtained was resuspended on a minimum volume and kept at −80° C. overnight. On the next day, the process was repeated until the final pellet was resuspended at a ratio of 1:10 (v/v).
# (§3) The affinity of the compounds was determined by competitive tests using radiolabeled flumazenil as ligand. The methods described by S. Arbilla et al. (Eur. J. Pharmacol., 130, 257-263, 1986); and Y. Wu et al. (Eur. J. Pharmacol., 278, 125-132, 1995) were used. The membranes containing the study receptors, flumazenil (radiolabeling at a final concentration of 1 nM) and ascending concentrations of test compounds (in a total volume of 500 μl in […] [ph 7.4] Tris HCl buffer) were incubated. Simultaneously, the membranes were only incubated with the radiolabeled flumazenil (total binding, 100%) and in the presence of an elevated concentration of unradiolabeled flumazenil (non-specific binding, % estimate of radiolabeled ligand). The reactions started on adding the radiolabeled ligand followed by incubation for 60 minutes at 0° C. At the end of the incubation period, the tubes were filtered using a Brandel Mod. M-48R harvester and then washed three times with cold test buffer. The harvester was fitted with a GF/B filter that retained the membranes containing the receptors and the radiolabeled ligand which had been bound to the receptors. Then the filters were removed and left till dry. Once dried, the filters were cut, placed in vials with scintillation liquid and left under stirring overnight. The next day the filters were counted using a Packard Mod. Tricarb scintillation counter.
# (§4) T: total binding, maximum amount bound to the radiolabeled ligand. N: Non-specific binding, amount of radiolabeled ligand bound in a non-specific way irrespective of the receptor used.
# (§5) Every concentrations of compound were tested in duplicate and their mean values were used to determine the experimental values of % specific binding versus the concentration of compound. […] Inhibition constants (Ki) were calculated from the IC50 values according to Cheng-Prusoff's formula (Y. Cheng y W. H. Prusoff, Biochem. Pharmacol., 22(23), 3099-3108, 1973).
# α2-GABAA receptor = α2-GABAA receptor (Rattus norvegicus, UniProt P18508+P23576); experiment: Ligand-binding assay, radiolabeled flumazenil competition, spinal cord membranes; settings: for inhibition at 10 µM: compound at 10^−5M; for inhibition at 0.1 µM: compound at 10^−7M
# Protocol: as §1, §2, §3, §4, §5
# [1] = read-out: Affinity for α1-GABAA receptor, Ki
SMILES,melting point,% Inhibition Motor Activity (male CD1 mice),Ki (α1-GABAA receptor),other results
O=[N+]([O-])c1cnn2c(-c3ccco3)ccnc12,235 to 237 °C,–,–,–
O=[N+]([O-])c1cnn2c(-c3cccs3)ccnc12,235 to 237 °C,–,–,–
O=[N+]([O-])c1cnn2c(-c3cccnc3)ccnc12,302 to 303 °C,–,–,–
O=[N+]([O-])c1cnn2c(-c3ccncc3)ccnc12,241 to 244 °C,–,–,–
CCN(c1cccc(-c2ccnc3c([N+](=O)[O-])cnn23)c1)S(=O)(=O)c1ccc(OC)cc1,209 to 211 °C,–,–,–
CCCCN(c1cccc(-c2ccnc3c([N+](=O)[O-])cnn23)c1)S(=O)(=O)c1ccc(OC)cc1,189 to 190 °C,–,–,–
CCCN(c1cccc(-c2ccnc3c([N+](=O)[O-])cnn23)c1)S(=O)(=O)c1ccc(OC)cc1,184 to 185 °C,–,–,–
COc1ccc(S(=O)(=O)N(C)c2cccc(-c3ccnc4c([N+](=O)[O-])cnn34)c2)cc1,205 to 206 °C,–,–,–
CCCCN(c1cccc(-c2ccnc3c([N+](=O)[O-])cnn23)c1)S(=O)(=O)c1ccccc1,159 to 160 °C,–,–,–
CCCN(c1cccc(-c2ccnc3c([N+](=O)[O-])cnn23)c1)S(=O)(=O)c1ccccc1,154 to 156 °C,–,–,–
CCCCN(c1cccc(-c2ccnc3c([N+](=O)[O-])cnn23)c1)S(C)(=O)=O,153 to 155 °C,–,–,–
O=C1CCCN1c1cccc(-c2ccnc3c([N+](=O)[O-])cnn23)c1,226 to 228 °C,–,–,–
O=[N+]([O-])c1cnn2c(-c3ccccc3C(F)(F)F)ccnc12,195 to 197 °C,–,–,–
O=[N+]([O-])c1cnn2c(-c3ccc(C(F)(F)F)cc3)ccnc12,191 to 193 °C,–,–,–
"CCN(C(C)=O)c1cccc(-c2ccnc3c([N+](=O)[O-])cnn23)c1 [Example 1, N-ethyl-N-[3-(3-nitro-pyrazolo[1,5-a]pyrimidin-7-yl)-phenyl]-acetamide]",176 to 178 °C,77.25%,0.0886 µM,–
"CC(=O)N(C)c1cccc(-c2ccnc3c([N+](=O)[O-])cnn23)c1 [Example 2, N-methyl-N-[3-(3-nitro-pyrazolo[1,5-a]pyrimidin-7-yl)-phenyl]-acetamide]",–,77.25%,0.0968 µM,–
"CCCN(C(C)=O)c1cccc(-c2ccnc3c([N+](=O)[O-])cnn23)c1 [Example 3, N-[3-(3-nitro-pyrazolo[1,5-a]pyrimidin-7-yl)-phenyl]-N-(n-propyl)-acetamide]",–,61.68%,–,Ki (α1-GABAA receptor; [1]): 0.11 µM
"C#CCN(C(C)=O)c1cccc(-c2ccnc3c([N+](=O)[O-])cnn23)c1 [Example 5, N-[3-(3-nitro-pyrazolo[1,5-a]pyrimidin-7-yl)-phenyl]-N-(2-propynyl)-acetamide]",–,79.06%,0.0386 µM,–
"O=[N+]([O-])c1cnn2c(-c3cccc(C(F)(F)F)c3)ccnc12 [Example 8, 3-nitro-7-(3-trifluoromethyl-phenyl)-pyrazolo[1,5-a]pyrimidine]",159 to 161 °C,69.08%,–,Ki (α1-GABAA receptor; [1]): 0.623 µM
"CCN(c1cccc(-c2ccnc3c([N+](=O)[O-])cnn23)c1)S(C)(=O)=O [Example 15, N-ethyl-N-[3-(3-nitro-pyrazolo[1,5-a]pyrimidin-7-yl)-phenyl]-methanesulfonamide]",–,–,0.0111 µM,–
"CN(c1cccc(-c2ccnc3c([N+](=O)[O-])cnn23)c1)S(C)(=O)=O [Example 18, N-methyl-N-[3-(3-nitro-pyrazolo[1,5-a]pyrimidin-7-yl)-phenyl]-methanesulfonamide]",–,68.55%,0.0283 µM,–
"CCCN(c1cccc(-c2ccnc3c([N+](=O)[O-])cnn23)c1)S(C)(=O)=O [Example 25, N-[3-(3-nitro-pyrazolo[1,5-a]pyrimidin-7-yl)-phenyl]-N-(n-propyl)-methanesulfonamide]",165 to 167 °C,61.06%,0.102 µM,–
"C#CCN(c1cccc(-c2ccnc3c([N+](=O)[O-])cnn23)c1)S(C)(=O)=O [Example 28, N-[3-(3-nitro-pyrazolo[1,5-a]pyrimidin-7-yl)-phenyl]-N-(prop-2-inyl)-methanesulfonamide]",–,94.19%,0.0117 µM,inhibition at 10 µM (α2-GABAA receptor): 96.4%; inhibition at 0.1 µM (α2-GABAA receptor): 29%
"C#CCN(c1cccc(-c2ccnc3c([N+](=O)[O-])cnn23)c1)S(=O)(=O)C(C)C [Example 31, N-[3-(3-nitro-pyrazolo[1,5-a]pyrimidin-7-yl)-phenyl]-N-(n-prop-2-inyl)-propane-2-sulfonamide]",–,94.31%,0.0485 µM,inhibition at 10 µM (α2-GABAA receptor): 81.3%; inhibition at 0.1 µM (α2-GABAA receptor): 4.2%
"CCS(=O)(=O)N(C)c1cccc(-c2ccnc3c([N+](=O)[O-])cnn23)c1 [Example 32, N-[3-(3-nitro-pyrazolo[1,5-a]pyrimidin-7-yl)-phenyl]-N-methyl-ethanesulfonamide]",–,91.57%,0.031 µM,inhibition at 10 µM (α2-GABAA receptor): 89%; inhibition at 0.1 µM (α2-GABAA receptor): 21%
"O=[N+]([O-])c1cnn2c(-c3cccc(N4CCCS4(=O)=O)c3)ccnc12 [Example 34, 7-(3-(2-isothiazolidinyl-1,1-dioxide)-phenyl)-3-nitro-pyrazolo[1,5-a]pyrimidine]",–,64.23%,–,Ki (α1-GABAA receptor; [1]): 0.165 µM; inhibition at 10 µM (α2-GABAA receptor): 86.9%; inhibition at 0.1 µM (α2-GABAA receptor): 4.3%
"CC(C)S(=O)(=O)N(C)c1cccc(-c2ccnc3c([N+](=O)[O-])cnn23)c1 [Example 35, N-[3-(3-nitro-pyrazolo[1,5-a]pyrimidin-7-yl)-phenyl]-N-methyl-propane-2-sulfonamide]",–,91.21%,0.0412 µM,inhibition at 10 µM (α2-GABAA receptor): 91.5%; inhibition at 0.1 µM (α2-GABAA receptor): 18.9%
"CCN(C(C)=O)c1cccc(-c2ccnc3c(C#N)cnn23)c1 [Zaleplon, zaleplon, reference compound]",–,47.17%,–,inhibition at 10 µM (α2-GABAA receptor): 78.4%
